These results are taken from patent US9399028B2, “Treatment of drug resistant cancer” (ROCKEFELLER UNIVERSITY (THE), priority 2012, dated 2016).

Assay [1] has as its system MeWo-LM2 cells, MeWo brain metastatic derivative cells. Nature of the assay: Systemic and brain metastasis after intracardiac injection into athymic nude mice. Particulars: diet 100 mg/kg. Type of assay: in vivo, human. The procedure:
After 8 hours, the transfection media was replaced with fresh media. After 48 hours, 1×10^5 cells were injected intravenously into NOD-SCID mice to assess lung metastatic colonization or through intracardiac injection into athymic nude mice to assess systemic metastasis. For cell invasion and endothelial recruitment in vitro assays, the cells were used 96 hours post-transfection.
Melanoma cells used for in vivo metastasis assays were transduced with a stably expressed retroviral construct encoding a luciferase reporter gene (Ponomarev et al., 2004), allowing us to monitor the in vivo progression of melanoma cells by bioluminescence imaging. The following numbers of melanoma cells, resuspended in 100 μL, of PBS, were injected intravenously via the tail-vein: 4×10^4 MeWo cells, 2.5×10^5 HT-144 cells, 2×10^5 SK-Mel-334.2 cells, 5×10^4B16F10 cells, and 1×10^5 YUMM cells. The MeWo, HT-144, and SK-Mel-334.2 cells were injected into 6-8 week-old sex-matched NOD scid mice, while the B16F10 and YUMM cells were injected into 6-8 week-old sex-matched C57BL/6 mice. […] To assess the effect of GW3965 treatment on brain metastasis, 1×10^5 MeWo brain-metastatic derivatives were injected intracardially into athymic nude mice. Immediately following injection, mice were randomly assigned to a control diet or GW3965-supplemented diet (100 mg/kg). […]

The test system of assay [2] is B-RafV600E/+; Pten-/-; CDKN2A-/- primary mouse melanoma cells. Nature of the assay: B-RafV600E/+; Pten-/-; CDKN2A-/- melanoma cells in syngeneic C57BL/6 mice. Format: in vivo. The method, then:
FIG. 24A-F. Suppression of Genetically-Driven Melanoma Progression by LXR Activation Therapy. (FIG. 24A) Overall survival of Tyr::CreER; BrafV600E/+; Ptenlox/+C57BL/6 mice following general melanoma induction by intraperitoneal administration of 4-HT (25 mg/kg) on three consecutive days. After the first 4-HT injection, mice were randomly assigned to a control diet or a diet supplemented with GW3965 (100 mg/kg). n=10-11. (FIG. 24B) Melanoma tumor burden, expressed as the percentage of dorsal skin area, measured on day 35 in Tyr::CreER; BrafV600E/+; Ptenlox/lox mice administered a control chow or a chow supplemented with GW3965 (100 mg/kg) upon melanoma induction as described in (FIG. 24A). n=4-5. (FIG. 24C) Number of macroscopic metastatic nodules to the salivary gland lymph nodes detected post-mortem in Tyr::CreER; BrafV600E/+; Ptenlox/lox mice that were fed a control chow or a chow containing GW3965 (100 mg/kg) following global induction of melanoma progression as described in (FIG. 24A). n=7-8. (FIG. 24D) Tumor growth following subcutaneous injection of 1×105 BrafV600E/+; Pten−/−; CDKN2A−/− primary melanoma cells into syngeneic C57BL/6-WT mice. Upon tumor growth to 5-10 mm3 in volume, mice were fed with a control chow or a chow supplemented with GW3965 (100 mg/kg). n=16-18. […]

Assay [3] relates to MeWo cells. The assay can be described thus: Orthotopic metastasis assay after tumor excision. Type of assay: in vivo, human. Particulars: chow 100 mg/kg for 1 month. The procedure:
To determine the effect of GW3965 treatment on lung colonization by melanoma cells dissociated from an orthotopic site, 1×10^6 MeWo cells expressing a luciferase reporter were subcutaneously injected into both lower flanks of NOD Scid mice. Upon the formation of tumors measuring 300 mm^3 in volume, the tumors were excised and the mice were randomly assigned to a control diet or a GW3965-supplemented diet (100 mg/kg) treatment. One month after tumor excision, the lungs were extracted and lung colonization was measured by ex vivo bioluminescence imaging. To histologically confirm the extent of melanoma lung colonization, lungs were then fixed in 4% PFA overnight, paraffin-embedded, section into […] increments and stained for human vimentin (VP-V684, Vector Laboratories).

In assay [4] the target is T1, LXRβ (Homo sapiens, UniProt P55055).
T1 sequence (P55055 184-460 limits assumed): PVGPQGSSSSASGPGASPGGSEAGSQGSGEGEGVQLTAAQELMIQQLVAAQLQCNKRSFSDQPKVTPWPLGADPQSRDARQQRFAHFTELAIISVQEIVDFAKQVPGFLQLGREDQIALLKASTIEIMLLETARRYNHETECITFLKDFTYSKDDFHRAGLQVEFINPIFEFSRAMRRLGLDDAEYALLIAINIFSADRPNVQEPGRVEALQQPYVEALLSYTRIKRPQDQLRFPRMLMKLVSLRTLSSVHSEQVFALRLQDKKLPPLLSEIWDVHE
T1 sequence (Q15788 676-700 partner limits assumed): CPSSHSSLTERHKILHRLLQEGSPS
As to conditions: LiSA, unit inferred; cited from earlier work.

In assay [5] the test system is MeWo, SK-Mel-2, SK-Mel-334.2, SK-Mel-239 human melanoma cells. The assay can be described thus: Subcutaneous human melanoma tumor growth in immunocompromised mice. Type of assay: in vivo.
From the text: (§1) All data are represented as mean±SEM.
as §1

Counter-ions that a name gives are not always drawn.

The term EC50 denotes the concentration giving half of the maximal effect.

As for `O=C(O)Cc1cccc(OCCCN(Cc2cccc(C(F)(F)F)c2Cl)CC(c2ccccc2)c2ccccc2)c1` [GW3965 2, 3-[3-[N-(2-Chloro-3-trifluoromethylbenzyl)-(2,2-diphenylethyl)amino]propyloxy]phenylacetic acid hydrochloride], in assay [1], the “systemic dissemination and brain colonization” value is reported as “inhibited”. For the same molecule, the lung metastasis entry in assay [2] (intravenous, diet 100 mg/kg) is listed as “robustly inhibited”. Moreover, the tumor growth result in assay [2] (subcutaneous, chow 100 mg/kg) is “robustly inhibited”. Further, the “inhibition of lung colonization by disseminated melanoma cells post-tumor excision” value in assay [3] is 17 fold. The EC50 in assay [4] was 30 nM. For the same molecule, the “suppression of growth of SK-Mel-239 vemurafenib-resistant line” value in assay [5] (diet 100 mg/kg, NOD Scid gamma mice) came to 72%. For the same molecule, the “overall survival time, MeWo and SK-Mel-334.2 xenografts” value in assay [5] (immunocompromised mice, chow 100 mg/kg after tumor establishment) is given as “substantially prolonged”. Also, in assay [5] (oral in diet), the “tumor growth inhibition, MeWo” value stood at 70%; the “tumor growth inhibition, SK-Mel-2” value is recorded as 49%; the “tumor growth inhibition, SK-Mel-334.2” value worked out at 73%. In assay [5] (oral, diet 100 mg/kg, NOD Scid gamma mice), the “growth of in vivo-derived DTIC-resistant MeWo tumors” value is recorded as “strongly inhibited”.
